Experimental data taken from ChEMBL document CHEMBL1201862, “PubChem BioAssay data set” (2004).
Activity calls are given as the source filed them.

Tests used:
Large T antigen = Large T antigen (Simian virus 40, UniProt P03070); assay type: functional, Betapolyomavirus macacae;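 further: Confirmatory-stage PubChem screen for compounds that inhibit SV40 T antigen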
H9c2 = assay: cells; assay type: functional, cell-based; details: Rattus norvegicus, H9c2, Myocardium;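 further: confirmatory concentration-response retest of ultra-high-throughput screening hits for modulation of myocardial damage; cell death induced by hydrogen peroxide oxidative stress; compound pretreatment for 60 min then peroxide exposure for 2 h; potency is for protecting the cells against peroxide damage rather than for killing them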
Cytochrome P450 2D6 = Cytochrome P450 2D6 (Homo sapiens, UniProt P10635);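 further: CYP2D6 member of a cytochrome P450 panel assay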
Sequence of Cytochrome P450 2D6 (P10635 whole entry): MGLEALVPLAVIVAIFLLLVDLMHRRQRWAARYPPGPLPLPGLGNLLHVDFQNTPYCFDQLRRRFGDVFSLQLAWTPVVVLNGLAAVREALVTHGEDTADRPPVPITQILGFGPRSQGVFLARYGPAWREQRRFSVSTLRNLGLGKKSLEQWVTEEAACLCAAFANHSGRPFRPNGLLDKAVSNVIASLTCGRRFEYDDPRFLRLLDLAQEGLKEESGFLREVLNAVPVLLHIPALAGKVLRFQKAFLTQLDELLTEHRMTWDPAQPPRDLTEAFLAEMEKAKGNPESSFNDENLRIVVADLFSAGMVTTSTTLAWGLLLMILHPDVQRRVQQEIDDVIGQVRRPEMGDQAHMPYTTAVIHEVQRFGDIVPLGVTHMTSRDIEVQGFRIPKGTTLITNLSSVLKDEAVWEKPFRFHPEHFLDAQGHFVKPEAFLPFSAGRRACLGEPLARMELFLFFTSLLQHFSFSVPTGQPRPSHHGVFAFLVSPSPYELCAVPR

Cytochrome P450 3A4 = Cytochrome P450 3A4 (Homo sapiens, UniProt P08684); details: Potency;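 further: confirmatory qHTS run detecting inhibitors and substrates of CYP3A4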
Sequence of Cytochrome P450 3A4 (P08684 whole entry): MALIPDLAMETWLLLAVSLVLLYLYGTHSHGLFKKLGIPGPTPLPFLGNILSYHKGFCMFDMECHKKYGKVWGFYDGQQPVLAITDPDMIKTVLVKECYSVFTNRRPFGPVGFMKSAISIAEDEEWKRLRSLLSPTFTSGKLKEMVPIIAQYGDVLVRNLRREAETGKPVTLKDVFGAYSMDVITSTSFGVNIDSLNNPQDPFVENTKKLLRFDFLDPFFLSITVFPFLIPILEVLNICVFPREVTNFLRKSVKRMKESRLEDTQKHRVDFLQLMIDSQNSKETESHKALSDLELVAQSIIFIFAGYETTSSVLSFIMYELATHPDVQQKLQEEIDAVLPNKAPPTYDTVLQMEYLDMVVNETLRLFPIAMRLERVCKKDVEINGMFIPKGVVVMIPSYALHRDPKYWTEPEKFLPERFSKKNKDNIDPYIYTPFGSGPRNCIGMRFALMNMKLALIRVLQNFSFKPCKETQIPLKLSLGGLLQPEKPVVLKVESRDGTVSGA

[1] = inhibitors of firefly luciferase expression or activity, dose response, H4 neuroglioma cells, luminescence (AID 1990); assay type: functional, cell-based
[2] = Luminescence Cell-Based Dose Response HTS to Identify Inhibitors of 5'UTR Stem-Loop Driven Prion Protein mRNA Translation in H4 Neuroglioblastoma Cells. [Related pubchem assays: 1827 (Project Summary), 1813 (Primary HTS)]; assay type: functional
[3] = inhibitors of SNCA 5'UTR-driven reporter translation, confirmation, H4 neuroglioma cells, luminescence (AID 1988); assay type: functional, cell-based
[4] = target: T1, Calpain-2 catalytic subunit (Sus scrofa, UniProt P43367); assay: pig calpain II inhibitor potency, dose response, biochemical, fluorogenic peptide substrate (AID 1420); assay type: functional
T1 sequence (P43367 whole entry): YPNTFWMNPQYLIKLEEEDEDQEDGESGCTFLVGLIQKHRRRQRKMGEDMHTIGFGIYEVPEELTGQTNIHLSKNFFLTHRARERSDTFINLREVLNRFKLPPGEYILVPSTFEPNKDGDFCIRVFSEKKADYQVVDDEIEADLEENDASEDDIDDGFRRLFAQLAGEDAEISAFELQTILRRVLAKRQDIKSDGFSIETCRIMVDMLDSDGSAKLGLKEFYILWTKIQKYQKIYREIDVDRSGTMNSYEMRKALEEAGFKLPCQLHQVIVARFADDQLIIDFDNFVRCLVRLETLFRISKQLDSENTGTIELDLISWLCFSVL

[5] = target: FAD-linked sulfhydryl oxidase ALR (Homo sapiens, UniProt P55789); assay: inhibitors of human ALR sulfhydryl oxidase, dose response, biochemical, H2O2 detection, luminescence, cherry-pick (AID 493248)
Sequence of FAD-linked sulfhydryl oxidase ALR (P55789 whole entry): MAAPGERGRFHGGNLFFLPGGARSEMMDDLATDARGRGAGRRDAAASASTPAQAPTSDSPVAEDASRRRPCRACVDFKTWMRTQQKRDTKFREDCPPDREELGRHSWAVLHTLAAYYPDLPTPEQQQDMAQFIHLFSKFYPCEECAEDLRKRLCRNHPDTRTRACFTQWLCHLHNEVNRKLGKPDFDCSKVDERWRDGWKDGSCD

[6] = inhibitors of intracellular T. cruzi replication, confirmation, NIH3T3 host cells, beta-gal luminescence (AID 2044); assay type: functional, cell-based;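 further: intracellular parasites grown in NIH/3T3 mouse fibroblasts as host cells; luminescent beta-galactosidase reporter signal from transgenic T. cruzi replicating inside host cells; inhibitors lower the luminescence signal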
[7] = cytotoxicity toward NIH3T3 fibroblasts, dose response, counter-screen, cell-based, ATP luminescence, mouse fibroblasts (AID 2010); assay type: functional;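 further: cells exposed to compound for about 90 hours before reading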
cells = assay type: functional
[8] = target: Induced myeloid leukemia cell differentiation protein Mcl-1 (Homo sapiens, UniProt Q07820); assay type: functional
Sequence of Induced myeloid leukemia cell differentiation protein Mcl-1 (Q07820 whole entry): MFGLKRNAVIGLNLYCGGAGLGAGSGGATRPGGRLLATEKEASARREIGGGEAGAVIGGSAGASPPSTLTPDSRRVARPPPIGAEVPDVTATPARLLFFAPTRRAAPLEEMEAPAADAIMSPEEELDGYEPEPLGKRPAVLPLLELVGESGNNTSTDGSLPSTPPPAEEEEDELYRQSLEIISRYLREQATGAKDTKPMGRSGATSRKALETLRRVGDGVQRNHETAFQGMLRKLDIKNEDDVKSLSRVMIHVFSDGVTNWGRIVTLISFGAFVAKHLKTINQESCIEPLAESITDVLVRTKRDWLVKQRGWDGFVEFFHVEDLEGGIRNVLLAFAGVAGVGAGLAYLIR

[9] = Luminescence Cell-Based Dose Response HTS to Identify Activators of Luciferase Translation or Activity in H4 […] Cells. [Related pubchem assays: 1829 (Project Summary), 1814 (Primary HTS)]; assay type: functional
H4 = assay: Luminescence Cell-Based Dose Response HTS to Identify Activators of 5'UTR Stem-Loop Driven Prion Protein mRNA Translation in H4 Neuroglioblastoma Cells. [Related pubchem assays: 1829 (Project Summary), 1814 (Primary HTS)]; assay type: functional; details: Homo sapiens
Leucine aminopeptidase = target: T2, Leucine aminopeptidase (Plasmodium falciparum 3D7, UniProt Q8IL11); assay: P. falciparum M17LAP inhibitors, primary screen, biochemical, fluorogenic H-Leu-NHMec substrate, 1536-well (AID 1619); assay type: functional
T2 sequence (Q8IL11 whole entry): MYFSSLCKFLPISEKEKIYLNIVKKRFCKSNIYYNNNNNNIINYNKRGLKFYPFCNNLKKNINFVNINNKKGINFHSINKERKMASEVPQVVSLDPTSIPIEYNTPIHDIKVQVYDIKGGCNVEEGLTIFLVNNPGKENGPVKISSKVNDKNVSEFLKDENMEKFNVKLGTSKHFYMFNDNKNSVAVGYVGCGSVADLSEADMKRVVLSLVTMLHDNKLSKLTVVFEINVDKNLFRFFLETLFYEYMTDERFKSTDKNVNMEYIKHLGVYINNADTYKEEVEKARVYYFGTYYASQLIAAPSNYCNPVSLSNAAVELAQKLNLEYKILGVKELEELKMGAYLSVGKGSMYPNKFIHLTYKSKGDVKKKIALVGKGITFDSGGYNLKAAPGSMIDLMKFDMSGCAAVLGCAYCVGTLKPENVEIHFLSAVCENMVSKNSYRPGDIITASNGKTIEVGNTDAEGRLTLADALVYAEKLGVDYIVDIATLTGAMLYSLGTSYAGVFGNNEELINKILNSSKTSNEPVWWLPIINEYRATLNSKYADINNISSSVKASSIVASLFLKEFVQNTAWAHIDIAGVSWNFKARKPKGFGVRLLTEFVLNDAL

Genome polyprotein = Genome polyprotein (dengue virus type 2, UniProt P29990); assay: Dengue-2 NS5 methyltransferase inhibitors, primary screen, biochemical, confirmation dose response (AID 588689); assay type: functional
Sequence of Genome polyprotein (P29990 2492-3391 limits assumed): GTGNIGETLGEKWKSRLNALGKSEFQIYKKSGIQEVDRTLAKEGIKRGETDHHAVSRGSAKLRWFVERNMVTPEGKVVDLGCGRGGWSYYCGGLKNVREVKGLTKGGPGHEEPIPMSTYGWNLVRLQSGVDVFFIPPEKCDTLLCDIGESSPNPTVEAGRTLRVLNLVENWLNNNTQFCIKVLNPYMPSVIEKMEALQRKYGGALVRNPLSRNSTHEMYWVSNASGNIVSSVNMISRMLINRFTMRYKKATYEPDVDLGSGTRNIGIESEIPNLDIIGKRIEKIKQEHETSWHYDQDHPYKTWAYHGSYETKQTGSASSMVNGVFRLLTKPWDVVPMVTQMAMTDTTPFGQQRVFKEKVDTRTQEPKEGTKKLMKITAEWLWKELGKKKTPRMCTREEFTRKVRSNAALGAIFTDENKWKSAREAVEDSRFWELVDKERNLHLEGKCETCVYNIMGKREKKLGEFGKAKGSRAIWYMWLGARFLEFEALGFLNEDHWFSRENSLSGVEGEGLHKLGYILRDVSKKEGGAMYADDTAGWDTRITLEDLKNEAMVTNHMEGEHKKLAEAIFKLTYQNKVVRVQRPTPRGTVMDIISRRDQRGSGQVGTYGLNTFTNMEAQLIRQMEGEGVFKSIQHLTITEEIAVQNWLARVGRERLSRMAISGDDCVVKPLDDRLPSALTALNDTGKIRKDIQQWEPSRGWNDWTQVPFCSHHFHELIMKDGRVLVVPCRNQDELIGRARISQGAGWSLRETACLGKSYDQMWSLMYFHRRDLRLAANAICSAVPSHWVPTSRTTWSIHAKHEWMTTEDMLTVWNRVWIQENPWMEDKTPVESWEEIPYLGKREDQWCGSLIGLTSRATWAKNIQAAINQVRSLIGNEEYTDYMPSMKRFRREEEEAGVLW

Sequence of Large T antigen (P03070 whole entry): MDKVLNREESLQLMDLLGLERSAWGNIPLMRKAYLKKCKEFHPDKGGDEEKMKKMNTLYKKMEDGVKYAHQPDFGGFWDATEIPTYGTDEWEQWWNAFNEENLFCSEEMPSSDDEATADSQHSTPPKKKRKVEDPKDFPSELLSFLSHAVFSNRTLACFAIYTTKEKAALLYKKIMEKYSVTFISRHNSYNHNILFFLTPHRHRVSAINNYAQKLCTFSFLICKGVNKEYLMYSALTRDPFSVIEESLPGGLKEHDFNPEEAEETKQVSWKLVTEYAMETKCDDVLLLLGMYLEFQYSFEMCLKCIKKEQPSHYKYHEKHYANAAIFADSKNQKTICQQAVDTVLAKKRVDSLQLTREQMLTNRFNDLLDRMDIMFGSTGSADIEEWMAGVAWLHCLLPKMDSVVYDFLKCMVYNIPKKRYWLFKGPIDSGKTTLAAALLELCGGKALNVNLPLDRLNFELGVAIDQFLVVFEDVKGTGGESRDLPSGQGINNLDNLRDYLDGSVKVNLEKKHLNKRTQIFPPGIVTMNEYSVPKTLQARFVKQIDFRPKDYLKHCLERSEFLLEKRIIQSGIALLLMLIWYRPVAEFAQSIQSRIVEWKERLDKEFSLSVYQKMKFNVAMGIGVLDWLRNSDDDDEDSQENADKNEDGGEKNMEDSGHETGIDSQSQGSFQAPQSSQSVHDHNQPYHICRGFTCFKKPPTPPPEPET

With CNC(=O)c1ccc(-c2sc3nc(N4CCOCC4)c4c(c3c2N)CC(C)(C)OC4)o1 the IC50 (Large T antigen) was 2.6 µM (active), the IC50 (H9c2) was > 79 µM (inactive) and the AC50 (Cytochrome P450 2D6) was 15.8 µM (inconclusive).

For COc1cc(/C=N/Nc2nc3ccccc3nc2O)ccc1O, the IC50 (Large T antigen) was 18 µM (active).

For CC(=O)OC1CC(OC(C)=O)[C@]2(C)C(CC(=O)[C@]3(C)C2CC[C@@]2(C)C(C(=O)O)OC(=O)C4OC423)C1(C)C (stereo partly drawn), the AC50 (Cytochrome P450 3A4) was 39.8 µM (inconclusive).

For Cn1c(NCc2ccccc2)nc2c1c(=O)n(Cc1ccc(Br)cc1)c(=O)n2C, the EC50 [1] was 13.5 µM (active), the EC50 [2] was 18 µM (active) and the EC50 [3] was 12.4 µM (active). For the same molecule, the IC50 [4] was 5.48 µM (active).

In the case of O=C(O)c1ccc(N2C(=O)/C(=C/c3nc4ccccc4[nH]3)SC2=S)cc1, the AC50 [5] is reported as 0.009 µM (active).

With CN(C)c1ccc(NC(=O)CN2CCN(CC(=O)Nc3ccc(F)cc3)CC2)cc1 the IC50 (Large T antigen) was 17.2 µM (active).

For CCOC(=O)N1CCC(N2CCCC(C(=O)c3ccc4cc(OC)ccc4c3)C2)CC1 (stereo not drawn), the EC50 [6] was 1.12 µM (active), the EC50 [7] was 56.6 µM (active) and the IC50 (cells) was 21.9 µM (active).

With Cn1c(=O)c(C(=O)COC(=O)c2cc(-c3ccco3)nc3ccccc23)c(N)n(CC2CC2)c1=O the IC50 [8] was 1.99 µM (active).

In the case of CC(=O)c1sc2nc(-c3cccs3)ccc2c1N, the EC50 [9] is reported as > 120 µM (not active), the EC50 (H4) is reported as 33.2 µM (inconclusive) and the IC50 [8] is reported as 7.08 µM (not active).

With COc1ccc(C(CC(=O)N2CCN(c3ccccc3)CC2)c2c(OC)cc(OC)c3ccc(=O)oc23)cc1 (stereo not drawn) the IC50 (H9c2) was 11.4 µM (active).

For CC1CCN(C(=O)COC(=O)c2cc3ccccc3cc2O)CC1, the IC50 (cells) was 0.9 µM (active).

For COc1ccc(OC)c(C(=O)N2CCCC(Nc3ccc(F)cc3)C2)c1 (stereo not drawn), the AC50 [5] was 1.92 µM (active).

For CCOC(=O)c1cnc(SC)nc1Oc1cccc(NC(=O)c2cccc(Cl)c2Cl)c1, the IC50 (H9c2) was > 79 µM (inactive).

In the case of CC(=O)Nc1c(O)nc(SCC(=O)Nc2cccc(C)c2)[nH]c1=O, the IC50 (Leucine aminopeptidase) is reported as 9.85 µM (active).

With COC(=O)COc1ccc2cc(-c3ccc(OC)cc3)c(=O)oc2c1 the IC50 (cells) was 1.12 µM (active).

In the case of O=C(CCCn1c(SCC(=O)c2ccc(O)c(O)c2)nc2ccccc2c1=O)NCC1CCCO1 (stereo not drawn), the IC50 (H9c2) is reported as 17.4 µM (active).

For CCOC(=O)CSc1nc2c(sc(=S)n2-c2ccccc2)c(=O)[nH]1, the IC50 (Leucine aminopeptidase) was 35.6 µM (active).

In the case of CN(C)c1ccc(CNC(=O)c2cc(S(=O)(=O)N3CCCC3)cn2C)cc1, the AC50 [5] is reported as 8.78 µM (active).

With CCCCCc1c2c(cc(O)c1C(=O)O)OC(=O)c1cc(C(=O)CCCC)c(OC)cc1O2 the IC50 (Genome polyprotein) was 39 µM (active).
